From patent US20080255206A1, “Rxr Agonists and Antagonists, Alone or in Combination with Ppar Ligands, in the Treatment of Metabolic and Cardiovascular Diseases” (priority 2005, published 2008) come the findings set out here.

Assay [1] addresses T1, RXRγ (Homo sapiens, UniProt P48443).
T1 sequence (P48443 1-463): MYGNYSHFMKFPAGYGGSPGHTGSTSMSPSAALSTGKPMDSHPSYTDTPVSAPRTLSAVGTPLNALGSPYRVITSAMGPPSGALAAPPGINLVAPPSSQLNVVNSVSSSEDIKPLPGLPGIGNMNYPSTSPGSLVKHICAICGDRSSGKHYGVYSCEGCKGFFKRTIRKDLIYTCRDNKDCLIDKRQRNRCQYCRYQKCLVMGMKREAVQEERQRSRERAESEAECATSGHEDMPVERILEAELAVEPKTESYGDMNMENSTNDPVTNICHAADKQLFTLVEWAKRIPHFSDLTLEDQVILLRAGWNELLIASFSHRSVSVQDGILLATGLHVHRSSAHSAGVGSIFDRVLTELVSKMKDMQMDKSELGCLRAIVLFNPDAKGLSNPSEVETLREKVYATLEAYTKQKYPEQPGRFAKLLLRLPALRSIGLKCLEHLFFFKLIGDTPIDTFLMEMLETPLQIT
Briefly: Retinoid activation assay, RXRγ (Schneider SL-3 cells, luciferase reporter). The following applies: read-out: Activation EC50 RXR γ. Format: cell-based. The protocol:
(§1) Full length RXR cDNA is used for transfection. As reporter system, the luciferase gene is used in a construct with three copies of a RXR response element from rat CRBP gene, (formerly RARE from betaRAR gene), fused to alcoholdehydrogenase gene promoter in the plasmid pGL2-basic. Schneider SL-3 cells from Drosophila are transiently transfected 3-4 h before the experiment by the Ca-phosphate-DNA coprecipitation method. […] At the end of the incubation, the cell supernatants are assayed for luciferase activity. Results are given as EC50 (nM), the concentration leading to half-maximal activation.

Assay [2] has as its target T1, RXRγ. Kind of assay: Retinoid binding assay, RXRγ. On the set-up: made in house; host or cells: E. coli. The following applies: [3H] 9-cis retinoic acid 20 nM; read-out: Binding Affinity IC50 RXR γ. The source says:
(§2) The DEF domains of RAR's and the full length RXR's, expressed in E.coli, are used to measure competitive retinoid binding. […] 9-cis retinoic acid (for RXR's), respectively. […] Separation of bound from free radioactivity is achieved by charcoal/dextran (RAR's) or by desalting columns (RXR's). […] Retinoid Activation Assays

Assay [3] concerns the target T2, RXRα (Homo sapiens, UniProt P19793).
T2 sequence (P19793 1-462): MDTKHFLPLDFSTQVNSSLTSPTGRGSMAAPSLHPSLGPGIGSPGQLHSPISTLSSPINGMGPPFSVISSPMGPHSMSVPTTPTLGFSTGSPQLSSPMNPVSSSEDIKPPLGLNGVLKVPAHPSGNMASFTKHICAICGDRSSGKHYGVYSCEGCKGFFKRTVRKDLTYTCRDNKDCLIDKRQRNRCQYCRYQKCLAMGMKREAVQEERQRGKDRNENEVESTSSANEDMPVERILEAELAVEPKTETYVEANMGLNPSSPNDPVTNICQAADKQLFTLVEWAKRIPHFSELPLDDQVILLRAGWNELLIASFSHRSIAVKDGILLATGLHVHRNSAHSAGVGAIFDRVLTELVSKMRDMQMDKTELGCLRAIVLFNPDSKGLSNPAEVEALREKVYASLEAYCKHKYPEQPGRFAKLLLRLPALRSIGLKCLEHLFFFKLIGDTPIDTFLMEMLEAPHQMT
Briefly: Retinoid binding assay, RXRα. On the set-up: made in house; host or cells: E. coli. The following applies: [3H] 9-cis retinoic acid 20 nM; read-out: Binding Affinity IC50 RXR α.
Text: as §2

The target in assay [4] is T2, RXRα. Kind of assay: Retinoid activation assay, RXRα (Schneider SL-3 cells, luciferase reporter). It is filed as cell-based. The following applies: read-out: Activation EC50 RXR α. The protocol:
as §1
(Reporter assays use an easily measured gene product as a stand-in for the process of interest.)

For assay [5], the target named is T3, RXRα Homodimer (Homo sapiens, UniProt P19793).
T3 construct: expressed in transfected cells; host or cells: mammalian cells (BHK21, CV1, etc)
T3 sequence (P19793 1-462): T2 sequence (P19793 1-462)
Briefly: RXRα homodimer activation (transactivation) assay. Format: cell-based. The source says:
(§3) Nuclear hormone receptor (NHR) ligand dependent transcriptional transactivation assay.
This secondary in vitro functional assay to characterize hits from the primary ligand binding screens is a GAL4-LBD transactivation assay. The Gal4-LBD protein consists of an in frame fusion of the transcription factor galactose 4 DNA binding domain from S.cerevisiae with the ligand binding domain (LBD) of a particular NHR. Briefly, a plasmid construct expressing the recombinant chimeric receptor is co-transfected into mammalian cells (BHK21, CV1, etc) with a luciferase reporter plasmid containing several copies in tandem of the GAL4 binding sites (promoter recognition elements) upstream from the minimal promoter driving the luciferase gene. The transfected cells are treated with compounds for 12-24 hours, lysates are produced and assayed for luciferase activity and normalized to internal standards such as GH, growth hormone or SEAP, secreted alkaline phosphatase. Ligand binding stabilizes the LBD conformation that recruits endogenous co-factors that mediate eventually the increased transcriptional activity of the luciferase reporter gene. By comparing the activation profile of a reference ligand or a natural ligand, the EC50 values for agonistic activity of a particular ligand can be measured. The extent of activation that can be measured is indicative of a partial, respectively full agonistic activity of a ligand. […]

For assay [6], the target named is T4, PPARγ/RXRα Heterodimer (Homo sapiens, UniProt P19793).
T4 construct: co-transfected with plasmids expressing the full length RXR heteropartner receptor; expressed in transfected cells
T4 sequence (P19793 1-462): T2 sequence (P19793 1-462)
T4 sequence (P37231 1-505 partner): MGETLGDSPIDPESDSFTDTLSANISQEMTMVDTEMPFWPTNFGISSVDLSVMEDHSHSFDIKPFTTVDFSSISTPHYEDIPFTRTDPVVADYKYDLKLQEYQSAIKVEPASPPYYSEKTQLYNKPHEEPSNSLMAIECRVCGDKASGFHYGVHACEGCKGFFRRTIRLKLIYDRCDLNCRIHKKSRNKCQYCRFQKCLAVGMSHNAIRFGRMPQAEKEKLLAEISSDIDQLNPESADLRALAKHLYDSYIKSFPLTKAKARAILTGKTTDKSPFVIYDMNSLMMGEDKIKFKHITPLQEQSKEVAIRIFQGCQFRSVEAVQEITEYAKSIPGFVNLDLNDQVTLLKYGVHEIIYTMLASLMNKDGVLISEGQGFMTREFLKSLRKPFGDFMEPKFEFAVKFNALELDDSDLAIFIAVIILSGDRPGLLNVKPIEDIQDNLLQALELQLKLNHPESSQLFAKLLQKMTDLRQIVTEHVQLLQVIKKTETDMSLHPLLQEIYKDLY
Briefly: PPARγ/RXRα heterodimer activation (transactivation) assay. Format: cell-based.
Text: as §3
Heterodimer reporter assays are potentially more important selection criteria for synthetic agonistic NHR ligands as they embody a more natural situation. Basically plasmids expressing the recombinant full length NHR are co-transfected with plasmids expressing the full length RXR heteropartner receptor and a reporter plasmid containing several copies of the natural responsive elements for the respective NHR driving the luciferase reporter gene.

Assay [7] relates to db/db mice. Kind of assay: Investigation with db/db mice (blood glucose and lipids). It is filed as in vivo, mouse. The following applies: for Glucose Diff. D o − D 12 / HDL-cholesterol Diff. D o − D 12 / Total cholesterol Diff. D o − D 12 / Triglycerides Diff. D o − D 12: change day 0 to day 12; for Glucose D o / HDL-cholesterol D o / Total cholesterol D o / Triglycerides D o: day 0; for HDL-cholesterol D 12 / Total cholesterol D 12 / Triglycerides D 12 / Glucose D 12: day 12; for Glucose D-4 / HDL-cholesterol D-4 / Total cholesterol D-4 / Triglycerides D-4: day −4. As for the experimental part: The following compounds are investigated and compared to placebo (vehicle control).
The mentioned 3 compounds are tested in db/db mice during a time when diabetes is in a rapid developing stage. […] Each dosage group and the vehicle group comprise 7 mice. The suspensions used are prepared with peroxide free arachis oil as vehicle. Blood samples are collected by retro-orbital bleeding at days −4, 0 and 12. The blood levels of glucose, triglycerides, total cholesterol, and HDL-cholesterol are determined.
For evaluation of efficacy, the difference between the values of glucose, triglycerides, total cholesterol and HDL-cholesterol changing from day 0 to day 12 is determined and expressed in %. […] Overall evaluation consists in determining the efficacy of the compounds by calculating the whole extent of the effect expressed in %. […] This value is considered as a valuable indicator for the efficacy of the investigated compounds administered in a tolerated dose.

The mark [8] stands for this setting: 30 mg/kg/day group versus vehicle group.

A word on the EC50: it is the concentration at which the effect is half-maximal. As usually defined, the IC50 is the concentration that inhibits the measured activity by half. Take `CCCOc1c([C@@H]2C[C@@H]2/C=C/C(C)=C/C(=O)O)cc(C(C)(C)C)cc1C(C)(C)C` (racemic) [Compound 20, (2E,4E)-5-[2-(3,5-Di-tert-butyl-2-propoxy-phenyl)-cyclopropyl]-3-methyl-penta-2,4-dienoic acid]: the EC50 in assay [1] is at least 10000 nM; in assay [4], at least 10000 nM; in assay [5], over 10000 nM; in assay [6], over 10000 nM. The IC50 in assay [2] turned out to be 71 nM; in assay [3], 52 nM.
Take `CCCCCCCOc1c(\C(C)=C/C=C/C(C)=C/C(=O)O)cc(C(C)C)cc1C(C)C` [Compound 19, (2E,4E,6Z)-7-(2-Heptyloxy-3,5-diisopropyl-phenyl)-3-methyl-octa-2,4,6-trienoic acid]: the IC50 came to 19 nM in assay [2] and 9 nM in assay [3]. Further, the values for the EC50 in assay [4], in assay [5] and in assay [6] were at least 10000 nM, over 10000 nM and over 10000 nM, respectively.
Regarding `C=C(c1ccc(C(=O)O)cc1)c1cc2c(cc1C)C(C)(C)CCC2(C)C` [Compound 2, 4-[1-(5,6,7,8-tetrahydro-3,5,5,8,8-pentamethyl-2-naphthalenyl)ethenyl]benzoic acid, reference compound], in assay [7] (0.3 mg/kg/day i.p.), the “Glucose Diff. D o − D 12” value is “+54.0%”, the “HDL-cholesterol Diff. D o − D 12” value is reported as −11.8%, the “Total cholesterol Diff. D o − D 12” value is −12.3% and the “Triglycerides Diff. D o − D 12” value is given as −4.0%. Further, in assay [7] (0.3 mg/kg/day i.p.), the “Glucose D o” value was determined as 189 mg/dL, the “HDL-cholesterol D o” value was 2.71 mmol/L, the “Total cholesterol D o” value amounted to 3.99 mmol/L and the “Triglycerides D o” value stood at 1.98 mmol/L. Further, in assay [7] (0.3 mg/kg/day i.p.), the “HDL-cholesterol D 12” value was 2.39 mmol/L, the “Total cholesterol D 12” value was 3.50 mmol/L, the “Triglycerides D 12” value is 1.90 mmol/L and the “Glucose D-4” value came out at 144 mg/dL. In assay [7] (0.3 mg/kg/day i.p.), the “HDL-cholesterol D-4” value came out at 2.48 mmol/L, the “Total cholesterol D-4” value is 3.96 mmol/L and the “Triglycerides D-4” value is 1.65 mmol/L. Further, in assay [7] (3 mg/kg/day), the “Glucose levels (in words)” value is recorded as “no significant change”, the “HDL-cholesterol levels (in words)” value was “not influenced” and the “Triglyceride levels (in words)” value is recorded as “hardly influenced”. In assay [7] (3.0 mg/kg/day i.p.), the “Glucose Diff. D o − D 12” value is “+30.4%”, the “HDL-cholesterol Diff. D o − D 12” value is −8.3%, the “Total cholesterol Diff. D o − D 12” value is listed as −25.4% and the “Triglycerides Diff. D o − D 12” value is −24.8%. Also, in assay [7] (3.0 mg/kg/day i.p.), the “Glucose D o” value was found to be 175 mg/dL, the “HDL-cholesterol D o” value was 2.77 mmol/L, the “Total cholesterol D o” value amounted to 4.65 mmol/L and the “Triglycerides D o” value is 2.01 mmol/L. In assay [7] (3.0 mg/kg/day i.p.), the “Glucose D 12” value was 229 mg/dL, the “HDL-cholesterol D 12” value stood at 2.54 mmol/L, the “Total cholesterol D 12” value is 3.47 mmol/L and the “Triglycerides D 12” value amounted to 1.51 mmol/L. In assay [7] (3.0 mg/kg/day i.p.), the “Glucose D-4” value was found to be 169 mg/dL, the “HDL-cholesterol D-4” value was 2.66 mmol/L, the “Total cholesterol D-4” value turned out to be 4.48 mmol/L and the “Triglycerides D-4” value was 1.97 mmol/L. Further, in assay [7] (30 mg/kg/day), the “Glucose levels (in words)” value is on record as “only hardly influenced”, the “HDL-cholesterol levels (in words)” value was “decreased”, the “Total cholesterol levels (in words)” value is recorded as “slightly lower” and the “Triglyceride levels (in words)” value is “even raises triglyceride levels”. Also, in assay [7] (setting [8]), the “Overall extent of the effect on blood levels of Glucose” value is “+5.6%”, the “Overall extent of the effect on blood levels of HDL-cholesterol” value was −17.8%, the “Overall extent of the effect on blood levels of Total cholesterol” value is given as −13.0% and the “Overall extent of the effect on blood levels of Triglycerides” value is reported as “+18.3%”. Moreover, in assay [7] (30 mg/kg/day i.p.), the “Glucose Diff. D o − D 12” value is listed as “+54.8%”, the “HDL-cholesterol Diff. D o − D 12” value is reported as −21.6%, the “Total cholesterol Diff. D o − D 12” value was −21.8% and the “Triglycerides Diff. D o − D 12” value is listed as “+40.4%”. In addition, in assay [7] (30 mg/kg/day i.p.), the “Glucose D o” value was 155 mg/dL, the “HDL-cholesterol D o” value amounted to 3.10 mmol/L, the “Total cholesterol D o” value is 4.31 mmol/L and the “Triglycerides D o” value was found to be 1.61 mmol/L. In assay [7] (30 mg/kg/day i.p.), the “Glucose D 12” value is 240 mg/dL, the “HDL-cholesterol D 12” value was 2.43 mmol/L, the “Total cholesterol D 12” value turned out to be 3.37 mmol/L and the “Triglycerides D 12” value was 2.26 mmol/L. In assay [7] (30 mg/kg/day i.p.), the “Glucose D-4” value amounted to 128 mg/dL, the “HDL-cholesterol D-4” value came out at 2.74 mmol/L, the “Total cholesterol D-4” value worked out at 4.24 mmol/L and the “Triglycerides D-4” value came to 1.75 mmol/L.
